Legend:
Assay type in all cases: cell-based
[1] = target: CXCR3 (Homo sapiens (Human), UniProt P49682); experiment: Receptor internalization assay (RIA) in human whole blood; details: final CXCL10 9 nM, CXCR3 surface expression on CD4 positive cells
Method: Stock solutions of test compounds are made up at a concentration of 10 mM in DMSO, and serially diluted in PBS containing 0.5% BSA to concentrations required for inhibition dose response curves. Diluted compounds are then mixed with an equal volume of CXCL10 (Peprotech) diluted in PBS. Anticoagulated venous human whole blood is added to the mixture, which is then incubated in a CO2 incubator at 37° C. to allow for ligand mediated receptor internalization (final CXCL10 concentration is 9 nM). After 30 min, the blood is mixed with fluorescently labeled CXCR3 and CD4 specific antibodies (Becton Dickinson) and incubated on ice for 10 minutes. Samples are then mixed with BD FACS Lysing Solution (Becton Dickinson) in order to eliminate red blood cells. After washing the cells with PBS containing 0.5% BSA, the samples are then analyzed in a flow cytometer (FACS Canto II, Becton Dickinson). For data analysis using FACSDiva software (Becton Dickinson), the mean fluorescence corresponding to CXCR3 cell surface expression was determined on CD4 positive cells.
(§1) The calculated IC50 values may fluctuate depending on the daily assay performance. Fluctuations of this kind are known to those skilled in the art. In the case where IC50 values have been determined several times for the same compound, mean values are given. Data for the FLIPR assay are shown in Table 1 and for the receptor internalization assay (RIA) in Table 2.

[2] = target: human CXCR3A (Homo sapiens (Human), UniProt P49682); experiment: FLIPR assay (calcium flux, CXCL10-induced); details: CHO-K1 cells expressing human CXCR3A coupled to Galpha(16); CXCL10 agonist at 20 nM
Chain of human CXCR3A (P49682 whole entry): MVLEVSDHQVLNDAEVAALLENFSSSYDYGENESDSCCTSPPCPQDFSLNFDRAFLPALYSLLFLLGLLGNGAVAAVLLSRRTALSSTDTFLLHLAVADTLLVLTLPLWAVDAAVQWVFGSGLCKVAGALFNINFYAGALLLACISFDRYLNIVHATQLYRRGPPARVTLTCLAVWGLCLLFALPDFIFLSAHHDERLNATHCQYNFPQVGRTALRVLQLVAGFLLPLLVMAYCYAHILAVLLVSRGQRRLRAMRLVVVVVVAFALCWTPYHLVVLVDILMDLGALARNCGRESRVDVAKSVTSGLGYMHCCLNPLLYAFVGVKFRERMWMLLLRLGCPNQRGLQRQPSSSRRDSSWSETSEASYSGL
Method: The bioactivity of compounds is tested in a fluorometric imaging plate reader (FLIPR: Molecular Devices) using engineered CHO-K1 cells expressing the human CXCR3A (GenBank: AY242128) coupled to a G protein (Galpha(16)). Cells are plated the day prior to bioassay in F12 medium supplemented with 10% FBS and G418 and hygromycin antibiotics to maintain recombinant selection. At the day of bioassay, cells are washed and dye loaded for one hour with Fluo-4-AM (Invitrogen) in Hanks Balanced Salt Solution (Invitrogen), buffered with 20 mM Hepes at pH 7.4 and sodium bicarbonate (0.038%), containing 5 mM probenecid. This buffer, but lacking the dye and containing probenecid at a concentration of 2.5 mM, is also used for washing steps (wash buffer); or lacking both dye and probenecid but supplemented with 0.1% BSA for compound dilution steps (dilution buffer). Cells are washed free of excess dye and 60 microliter of wash buffer is added. Stock solutions of test compounds are made up at a concentration of 10 mM in DMSO, and serially diluted in dilution buffer to concentrations required for inhibition dose response curves. After a 10 minute incubation period at 37° C., 10 microliters of each compound dilution are transferred from a compound plate to the plate containing the recombinant cells in the FLIPR instrument according to the manufacturer's instructions. Following basal readings, 10 microliter CXCL10 agonist at a concentration of 20 nM (from Peprotech) is added, again using the FLIPR instrument. Changes in fluorescence are monitored before and after addition of the test compounds. Emission peak values above base level after CXCL10 addition are exported after base line subtraction.
as §1

[3] = target: hERG K channel (Homo sapiens (Human), UniProt Q12809); experiment: hERG Q-Patch assay; details: CHO cells expressing hERG, K+ tail current
Chain of hERG K channel (Q12809 whole entry): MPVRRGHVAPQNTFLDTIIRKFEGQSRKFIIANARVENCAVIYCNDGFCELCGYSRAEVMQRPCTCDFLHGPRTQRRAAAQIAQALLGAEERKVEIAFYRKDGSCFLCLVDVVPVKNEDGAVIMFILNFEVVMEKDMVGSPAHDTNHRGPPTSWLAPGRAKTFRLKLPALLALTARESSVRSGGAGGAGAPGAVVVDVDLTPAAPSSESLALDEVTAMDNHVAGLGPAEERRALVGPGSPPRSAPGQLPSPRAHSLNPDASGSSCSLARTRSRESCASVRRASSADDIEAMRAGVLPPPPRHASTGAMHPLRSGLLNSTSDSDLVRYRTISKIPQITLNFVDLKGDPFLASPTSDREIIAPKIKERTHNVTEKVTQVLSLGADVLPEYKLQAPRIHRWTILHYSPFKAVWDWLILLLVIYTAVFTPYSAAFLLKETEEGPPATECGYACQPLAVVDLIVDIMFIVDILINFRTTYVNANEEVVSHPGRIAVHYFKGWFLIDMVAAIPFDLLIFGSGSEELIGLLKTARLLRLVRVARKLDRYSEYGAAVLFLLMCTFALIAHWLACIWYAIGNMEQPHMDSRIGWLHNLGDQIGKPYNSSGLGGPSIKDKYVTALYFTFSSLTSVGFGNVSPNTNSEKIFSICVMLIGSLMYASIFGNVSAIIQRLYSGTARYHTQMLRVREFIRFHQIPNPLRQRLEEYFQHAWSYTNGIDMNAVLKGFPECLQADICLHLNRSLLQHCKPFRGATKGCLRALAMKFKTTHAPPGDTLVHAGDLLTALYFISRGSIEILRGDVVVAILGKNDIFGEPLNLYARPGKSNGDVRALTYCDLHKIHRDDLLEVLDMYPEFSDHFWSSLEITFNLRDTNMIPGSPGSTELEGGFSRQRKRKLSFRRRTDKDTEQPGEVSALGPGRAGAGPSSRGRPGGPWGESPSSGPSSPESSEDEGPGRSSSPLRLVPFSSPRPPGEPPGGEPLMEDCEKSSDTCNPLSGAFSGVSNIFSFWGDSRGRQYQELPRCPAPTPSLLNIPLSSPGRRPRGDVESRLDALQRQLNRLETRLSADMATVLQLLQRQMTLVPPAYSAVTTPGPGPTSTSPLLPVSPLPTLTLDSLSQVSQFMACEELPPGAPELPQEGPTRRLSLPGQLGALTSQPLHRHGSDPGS
Method: Compounds are evaluated for block of the hERG K channel using CHO cells stably expressing the hERG gene (accession number U04270, bSys, Witterswil, Switzerland) and the QPatch robotic platform (Sophion, Ballerup, Denmark) in single-cell mode at room temperature. Cells are grown in culture flasks at 37° C. in 5% CO2, in culture medium (Ham's F-12 Nutrient Mixture, Invitrogen 21765-029) supplemented with 9% (v/v) fetal calf serum, 0.9% Penicillin/Streptomycin (10,000 U/mL, Invitrogen 15140148), 100 μg/mL Hygromycin B (Invitrogen 10687010). When the cells are ˜80% confluent (every 2-3 days), they are either split for further culture or used for electrophysiology. For further culture, cells are detached with 0.25% Trypsin EDTA solution (Invitrogen 25200-056) and a fraction of the cells (10-30%) is reseeded in culture medium. For electrophysiology, on the experimental day, cells are detached with 0.25% Trypsin EDTA solution and all cells are suspended in suspension medium (293 SFM II, Invitrogen 11686-029) supplemented with 20 mM HEPES and 0.04 mg/mL Trypsin inhibitor. Cells are kept in suspension medium at 32-35° C. in the QPatch robot until use, at which time aliquots are transferred to the extracellular solution (in mM: NaCl 150; KCl 4; CaCl2 1.2; MgCl2 1; HEPES 10; pH 7.4 with NaOH) containing 0.3% v/v DMSO and applied to the test plates. K+ currents are measured with the patch-voltage-clamp technique in the whole-cell configuration with the internal solution (in mM: KCl, 140; NaCl, 10; MgCl2, 1; HEPES, 10; EGTA, 5; pH=7.2 with KOH). Currents are low-pass filtered using the internal Bessel filter of the QPatch robot with a cut-off frequency of 2 kHz and are digitized at 10 kHz. K^+ tail currents are produced from a holding voltage of −80 mV by a 500-ms depolarization to +20 mV followed by a 500-ms repolarization to −40 mV; tail current amplitudes are measured at the end of the repolarization to −40 mV. The pulse pattern is repeated every 10 sec during the experiment, baseline K^+ current is measured after 3 min in extracellular solution, test-solution containing compound is then applied, and K^+ current in presence of compound is measured 3 minutes after application to the cells. The respective test-solution is prepared by (1) dissolving the test-compound in pure DMSO, (2) diluting this DMSO solution in extracellular solution, and (3) adding further DMSO, such that the final test-solution has a concentration of either 300 nM or 3000 nM of the test-compound and contains 0.3% v/v DMSO. Compound effects are quantified as % block by dividing the current in presence of compound by the baseline current; two or three experiments are performed for each compound and the final value represents the mean of the results of each experiment.

Chain of CXCR3 (P49682 whole entry): as the sequence (P49682 whole entry) above

| SMILES | IC50 [1] | IC50 [2] | % block ([3]; concentration 300 nM) | % block ([3]; concentration 3000 nM) |
| --- | --- | --- | --- | --- |
| CCOc1ncc(-c2nc(C(F)(F)F)sc2N2CCN(C(=O)Cn3cnc(COC)n3)[C@H](C)C2)cn1 [Example 4, 1-{(R)-4-[4-(2-Ethoxy-pyrimidin-5-yl)-2-trifluoromethyl-thiazol-5-yl]-2-methyl-piperazin-1-yl}-2-(3-methoxymethyl-[1,2,4]triazol-1-yl)-ethanone] | 950 nM | 13 nM | 5% | 10% |
| CCOc1ncc(-c2nc(C(F)(F)F)sc2N2CCN(C(=O)Cn3cnc(C(C)C)n3)[C@H](C)C2)cn1 [Example 1, 1-{(R)-4-[4-(2-Ethoxy-pyrimidin-5-yl)-2-trifluoromethyl-thiazol-5-yl]-2-methyl-piperazin-1-yl}-2-(3-isopropyl-[1,2,4]triazol-1-yl)-ethanone] | 299 nM | 2.3 nM | 6% | 20% |
| COCc1ncn(CC(=O)N2CCN(c3sc(C(F)(F)F)nc3-c3cnc(C4CC4)nc3)C[C@H]2C)n1 [Example 18, 1-{(R)-4-[4-(2-Cyclopropyl-pyrimidin-5-yl)-2-trifluoromethyl-thiazol-5-yl]-2-methyl-piperazin-1-yl}-2-(3-methoxymethyl-[1,2,4]triazol-1-yl)-ethanone] | 1390 nM | 3.1 nM | 10% | 22% |
| C[C@@H]1CN(c2sc(C(F)(F)F)nc2-c2cnc(C(F)(F)F)nc2)CCN1C(=O)Cn1cnc(C(C)(C)O)n1 [Example 13, 2-[3-(1-Hydroxy-1-methyl-ethyl)-[1,2,4]triazol-1-yl]-1-{(R)-2-methyl-4-[2-trifluoromethyl-4-(2-trifluoromethyl-pyrimidin-5-yl)-thiazol-5-yl]-piperazin-1-yl}-ethanone] | 830 nM | 3.2 nM | 10% | 21% |

Further lines, with some results ahead:

| IC50 [1] | IC50 [2] | SMILES | % block ([3]; concentration 300 nM) | % block ([3]; concentration 3000 nM) |
| --- | --- | --- | --- | --- |
| 809 nM | 5.2 nM | C[C@@H]1CN(c2sc(C(F)(F)F)nc2-c2cnc(C(F)(F)F)nc2)CCN1C(=O)Cn1cnc(CO)n1 [Example 10, 2-(3-Hydroxymethyl-[1,2,4]triazol-1-yl)-1-{(R)-2-methyl-4-[2-trifluoromethyl-4-(2-trifluoromethyl-pyrimidin-5-yl)-thiazol-5-yl]-piperazin-1-yl}-ethanone] | 6% | 17% |
| 679 nM | 4.6 nM | C[C@@H]1CN(c2sc(C(F)(F)F)nc2-c2cnc(C3CC3)nc2)CCN1C(=O)Cn1cnc(C(C)(C)C)n1 [Example 17, 2-(3-tert-Butyl-[1,2,4]triazol-1-yl)-1-{(R)-4-[4-(2-cyclopropyl-pyrimidin-5-yl)-2-trifluoromethyl-thiazol-5-yl]-2-methyl-piperazin-1-yl}-ethanone] | 0% | 23% |
| 606 nM | 2.7 nM | COCc1ncn(CC(=O)N2CCN(c3sc(C(F)(F)F)nc3-c3cnc(C(F)(F)F)nc3)C[C@H]2C)n1 [Example 9, 2-(3-Methoxymethyl-[1,2,4]triazol-1-yl)-1-{(R)-2-methyl-4-[2-trifluoromethyl-4-(2-trifluoromethyl-pyrimidin-5-yl)-thiazol-5-yl]-piperazin-1-yl}-ethanone] | 2% | 11% |
| 148 nM | 2 nM | CCc1ncn(CC(=O)N2CCN(c3sc(C(F)(F)F)nc3-c3cnc(C(F)(F)F)nc3)C[C@H]2C)n1 [Example 6, 2-(3-Ethyl-[1,2,4]triazol-1-yl)-1-{(R)-2-methyl-4-[2-trifluoromethyl-4-(2-trifluoromethyl-pyrimidin-5-yl)-thiazol-5-yl]-piperazin-1-yl}-ethanone] | 5% | 22% |
| 189 nM | 1.6 nM | Cc1ncn(CC(=O)N2CCN(c3sc(C(F)(F)F)nc3-c3cnc(C(F)(F)F)nc3)C[C@H]2C)n1 [Example 20, 2-(3-Methyl-[1,2,4]triazol-1-yl)-1-{(R)-2-methyl-4-[2-trifluoromethyl-4-(2-trifluoromethyl-pyrimidin-5-yl)-thiazol-5-yl]-piperazin-1-yl}-ethanone] | 2% | 18% |
